Experimental data from patent US11807835B2, “Detergent compositions containing a stabilized enzyme by phosphonates” (ECOLAB USA INC., priority 2016, dated 2023).

Test system: protease
Test: Protease activity retention in detergent use solution (4000 ppm, 5 GPG water; peptidyl substrate, glycine buffer pH 9.0)
Assay type: biochemical
Conditions: for Relative Protease Enzyme Activity: use solution at 120° F.
Description: The enzyme activities in the detergents with different phosphonate levels were tested at 4000 ppm in 5 grains per gallon (GPG) water at 120° F. with various time points collected up to 4 hours, after a use solution was generated from the detergent composition. During the tests, the samples at different time points were collected and immediately frozen in an acetone/dry ice bath and stored in −80° C. before the activity of the enzyme was evaluated. For the use of such an assay, t=0 min was the reference point for 100% enzyme activity.
Assays of enzyme activity in formulations (% retention) were conducted to simulate a presoak condition in a beaker using the chemistry, temperature, and pH conditions relevant to manual warewash or presoak applications. Enzyme activity is an indicator of the stability of the enzyme in the detergent, specifically in an aqueous use solution within a sump (which is under conditions of high pH, temperature and dilution).
The analysis by protease assay was conducted as follows. For the assays, a detergent composition was used to generate an aqueous use solution evaluated herein.
Enzyme activity under presoak or manual warewash conditions was traced quantitatively using a standard protease assay. Samples were prepared under bench top conditions, whereby the use solution from a detergent composition or detergent was obtained and maintained at a presoak or manual warewash temperature in a stirring water bath. After the time course for assessing enzyme stability is initiated, aliquots were taken at various time points and flash-frozen. A time=0 sample was prepared for each series by dissolving the detergent formulation at room temperature, mixing thoroughly, and flash freezing. Samples were thawed and diluted as necessary in an assay buffer usually for use in the protease assay. A glycine buffer at pH 9.0 is used here. The assay monitored the direct reaction of the protease on a small, commercially available peptidyl substrate, with liberation of the product providing correlation to the active enzyme content. The product was detected using a plate reader with an appreciable dynamic range (upper absorbance limit of the instrument >3.5). Enzyme activity levels were assessed relative to a calibration curve with average values for replicate tests used to map protease stability under presoak or manual warewash use conditions. Enzyme retention at each time point was calculated as the % enzyme activity relative to the time=0 sample.

[1] = base formula, phosphonate 0.6 wt-%, time 0 min
[2] = base formula, phosphonate 0.6 wt-%, time 5 min
[3] = base formula, phosphonate 0.6 wt-%, time 10 min
[4] = base formula, phosphonate 0.6 wt-%, time 20 min
[5] = base formula, phosphonate 0.6 wt-%, time 40 min
[6] = base formula, phosphonate 0.6 wt-%, time 60 min
[7] = base formula, phosphonate 0.6 wt-%, time 90 min
[8] = base formula, phosphonate 0.6 wt-%, time 120 min
[9] = base formula, phosphonate 0.6 wt-%, time 150 min
[10] = base formula, phosphonate 0.6 wt-%, time 180 min
[11] = base formula, phosphonate 0.6 wt-%, time 210 min
[12] = base formula, phosphonate 0.6 wt-%, time 240 min
[13] = base formula, phosphonate at 0.1% elemental phosphorus, time 0 min
[14] = base formula, phosphonate at 0.1% elemental phosphorus, time 5 min
[15] = base formula, phosphonate at 0.1% elemental phosphorus, time 10 min
[16] = base formula, phosphonate at 0.1% elemental phosphorus, time 20 min
[17] = base formula, phosphonate at 0.1% elemental phosphorus, time 40 min
[18] = base formula, phosphonate at 0.1% elemental phosphorus, time 60 min
[19] = base formula, phosphonate at 0.1% elemental phosphorus, time 90 min
[20] = base formula, phosphonate at 0.1% elemental phosphorus, time 120 min
[21] = base formula, phosphonate at 0.1% elemental phosphorus, time 150 min
[22] = base formula, phosphonate at 0.1% elemental phosphorus, time 180 min
[23] = base formula, phosphonate at 0.1% elemental phosphorus, time 210 min
[24] = base formula, phosphonate at 0.1% elemental phosphorus, time 240 min

Compound: NCP(=O)(O)O [AMPA, Aminomethyl phosphonic acid]
- protease stability (base formula, compared with ATMP, DGAP, PAPEMP, MEAP): improves protease stability, but to a lesser extent
- Relative Protease Enzyme Activity (base formula, phosphonate 0.3 wt-%, lower half of Table 4A, time 5): 86.30%
- Relative Protease Enzyme Activity (base formula, phosphonate 0.3 wt-%, lower half of Table 4A, time 20): 63.30%
- Relative Protease Enzyme Activity (base formula, phosphonate 0.3 wt-%, lower half of Table 4A, time 90): 37.90%
- Relative Protease Enzyme Activity (base formula, phosphonate 0.3 wt-%, lower half of Table 4A, time 120): 31.17%
- Relative Protease Enzyme Activity (base formula, phosphonate 0.3 wt-%, lower half of Table 4A, time 150, unit not given): 28.70%
- Relative Protease Enzyme Activity (base formula, phosphonate 0.3 wt-%, lower half of Table 4A, time 210): 22.72%
- Relative Protease Enzyme Activity (base formula, phosphonate 0.3 wt-%, lower half of Table 4A, time '0'): 100.00%
- Relative Protease Enzyme Activity (base formula, phosphonate 0.3 wt-%, lower half of Table 4A, time '40'): 51.37%
- Relative Protease Enzyme Activity (base formula, phosphonate 0.3 wt-%, lower half of Table 4A, time 'Blank'): 85.83%
- Relative Protease Enzyme Activity (base formula, phosphonate 0.3 wt-%, lower half of Table 4A, time row printed '10'): 78.58%
- Relative Protease Enzyme Activity (base formula, phosphonate 0.3 wt-%, lower half of Table 4A, time row printed '60'): 44.31%
- Relative Protease Enzyme Activity (base formula, phosphonate 0.3 wt-%, lower half of Table 4A, time row printed '180'): 25.64%
- Relative Protease Enzyme Activity [1]: 100.00%
- Relative Protease Enzyme Activity [2]: 109.27%
- Relative Protease Enzyme Activity [3]: 94.52%
- Relative Protease Enzyme Activity [4]: 84.97%
- Relative Protease Enzyme Activity [5]: 77.92%
- Relative Protease Enzyme Activity [6]: 75.86%
- Relative Protease Enzyme Activity [7]: 62.50%
- Relative Protease Enzyme Activity [8]: 54.43%
- Relative Protease Enzyme Activity [9]: 51.19%
- Relative Protease Enzyme Activity [10]: 47.47%
- Relative Protease Enzyme Activity [11]: 43.42%
- Relative Protease Enzyme Activity [12]: 40.00%
- Relative Protease Enzyme Activity [13]: 107.11%
- Relative Protease Enzyme Activity [14]: 100.00%
- Relative Protease Enzyme Activity [15]: 99.75%
- Relative Protease Enzyme Activity [16]: 84.62%
- Relative Protease Enzyme Activity [17]: 70.58%
- Relative Protease Enzyme Activity [18]: 62.19%
- Relative Protease Enzyme Activity [19]: 49.17%
- Relative Protease Enzyme Activity [20]: 43.34%
- Relative Protease Enzyme Activity [21]: 38.26%
- Relative Protease Enzyme Activity [22]: 34.55%
- Relative Protease Enzyme Activity [23]: 32.27%
- Relative Protease Enzyme Activity [24]: 28.25%

Compound: O=P(O)(O)CN(CP(=O)(O)O)CP(=O)(O)O [ATMP, Aminotri (methylene phosphonic acid)]
- Relative Protease Enzyme Activity (All Ash formula, phosphonate 0.3 wt-%, time 0 min): 100.00%
- Relative Protease Enzyme Activity (All Ash formula, phosphonate 0.3 wt-%, time 5 min): 84.60%
- Relative Protease Enzyme Activity (All Ash formula, phosphonate 0.3 wt-%, time 10 min): 75.67%
- Relative Protease Enzyme Activity (All Ash formula, phosphonate 0.3 wt-%, time 20 min): 53.32%
- Relative Protease Enzyme Activity (All Ash formula, phosphonate 0.3 wt-%, time 40 min): 33.78%
- Relative Protease Enzyme Activity (All Ash formula, phosphonate 0.3 wt-%, time 60 min): 22.22%
- Relative Protease Enzyme Activity (All Ash formula, phosphonate 0.3 wt-%, time 90 min): 15.40%
- Relative Protease Enzyme Activity (All Ash formula, phosphonate 0.3 wt-%, time 120 min): 11.13%
- Relative Protease Enzyme Activity (All Ash formula, phosphonate 0.3 wt-%, time 150 min): 9.39%
- Relative Protease Enzyme Activity (All Ash formula, phosphonate 0.3 wt-%, time 180 min): 7.41%
- Relative Protease Enzyme Activity (All Ash formula, phosphonate 0.3 wt-%, time 210 min): 6.17%
- Relative Protease Enzyme Activity (All Ash formula, phosphonate 0.3 wt-%, time 240 min): 5.58%
- protease stability in all ash formula (all ash formula, versus same composition with PBTC or HEDP without amine(s), FIG. 2D): more stable
- Relative Protease Enzyme Activity (base formula, phosphonate 0.3 wt-%, time 0 min): 100.00%
- Relative Protease Enzyme Activity (base formula, phosphonate 0.3 wt-%, time 5 min): 94.95%
- Relative Protease Enzyme Activity (base formula, phosphonate 0.3 wt-%, time 10 min): 94.68%
- Relative Protease Enzyme Activity (base formula, phosphonate 0.3 wt-%, time 20 min): 89.76%
- Relative Protease Enzyme Activity (base formula, phosphonate 0.3 wt-%, time 40 min): 87.06%
- Relative Protease Enzyme Activity (base formula, phosphonate 0.3 wt-%, time 60 min): 83.93%
- Relative Protease Enzyme Activity (base formula, phosphonate 0.3 wt-%, time 90 min): 80.79%
- Relative Protease Enzyme Activity (base formula, phosphonate 0.3 wt-%, time 120 min): 76.31%
- Relative Protease Enzyme Activity (base formula, phosphonate 0.3 wt-%, time 150 min): 73.96%
- Relative Protease Enzyme Activity (base formula, phosphonate 0.3 wt-%, time 180 min): 70.37%
- Relative Protease Enzyme Activity (base formula, phosphonate 0.3 wt-%, time 210 min): 65.72%
- Relative Protease Enzyme Activity (base formula, phosphonate 0.3 wt-%, time 240 min): 63.75%
- Relative Protease Enzyme Activity [1]: 100.00%
- Relative Protease Enzyme Activity [2]: 91.70%
- Relative Protease Enzyme Activity [3]: 102.58%
- Relative Protease Enzyme Activity [4]: 100.03%
- Relative Protease Enzyme Activity [5]: 97.16%
- Relative Protease Enzyme Activity [6]: 92.31%
- Relative Protease Enzyme Activity [7]: 89.99%
- Relative Protease Enzyme Activity [8]: 91.60%
- Relative Protease Enzyme Activity [9]: 86.21%
- Relative Protease Enzyme Activity [10]: 89.08%
- Relative Protease Enzyme Activity [11]: 89.86%
- Relative Protease Enzyme Activity [12]: 82.33%
- Relative Protease Enzyme Activity [13]: 100.00%
- Relative Protease Enzyme Activity [14]: 122.55%
- Relative Protease Enzyme Activity [15]: 116.65%
- Relative Protease Enzyme Activity [16]: 115.14%
- Relative Protease Enzyme Activity [17]: 107.73%
- Relative Protease Enzyme Activity [18]: 102.70%
- Relative Protease Enzyme Activity [19]: 111.18%
- Relative Protease Enzyme Activity [20]: 106.19%
- Relative Protease Enzyme Activity [21]: 96.80%
- Relative Protease Enzyme Activity [22]: 93.35%
- Relative Protease Enzyme Activity [23]: 90.51%
- Relative Protease Enzyme Activity [24]: 88.60%
